Values of other authors in patent publication US20050287205A1, “Dietary supplement compositions” (priority 2004, published 2005).

Key:
[1] = tested on: liver and skeletal muscle glycogen; conditions: acetic acid administration to mammals; promotes recovery from fatigue
[2] = tested on: spontaneously hypertensive rats
[3] = with water, ethyl alcohol, and diethyl ether
renin = conditions: spontaneously hypertensive rats

miscibility [3]: miscible (mixable) in all proportions
SMILES: CC(=O)O [acetic acid]
glycogen repletion in liver and skeletal muscle [1]: enhances glycogen repletion in liver and skeletal muscle
blood pressure [2]: significantly reduces
renin activity (renin): significantly reduces
